{
  "source": "paper PMC8373237",
  "about": "(Antimicrobial Agents and Chemotherapy, 2021)",
  "key": {"Ssa-Esc T3SS, EPEC/EHEC [1]": {"tested_on": "Ssa-Esc T3SS, EPEC/EHEC", "parameters": "method as in PMID 33316970", "settings": "translocation assay; ref [109]; read-out: IC50, EspF translocation; cited from earlier work"}, "Ssa-Esc T3SS, EPEC/EHEC [2]": {"tested_on": "Ssa-Esc T3SS, EPEC/EHEC", "settings": "biochemical assay, cited from earlier work"}, "[3]": {"tested_on": "Yersinia pseudotuberculosis Ysc T3SS", "settings": "culture-based secretion assay; ref [87]; cited from earlier work"}, "[4]": {"tested_on": "Salmonella enterica Typhimurium SPI-1 T3SS", "settings": "culture-based secretion assay; ref [87]; cited from earlier work"}, "Ssa-Esc T3SS, EPEC/EHEC [5]": {"tested_on": "Ssa-Esc T3SS, EPEC/EHEC", "settings": "culture-based secretion assay, cited from earlier work"}, "[6]": {"tested_on": "Pseudomonas aeruginosa Psc T3SS", "settings": "cell-based infection assay, ref [67], cited from earlier work"}, "[7]": {"tested_on": "Yersinia pseudotuberculosis Ysc T3SS", "settings": "cited from earlier work"}, "[8]": {"tested_on": "Chlamydiales T3SS, Chlamydia", "settings": "cell-based infection assay, ref [67], cited from earlier work"}, "[9]": {"tested_on": "Salmonella enterica Typhimurium SPI-1 T3SS", "settings": "translocation assay, cited from earlier work"}, "[10]": {"tested_on": "Yersinia pseudotuberculosis Ysc T3SS", "settings": "cited from earlier work", "remark": "listed apart in the source"}, "[11]": {"tested_on": "Salmonella enterica Typhimurium SPI-1 T3SS", "settings": "cited from earlier work"}, "[12]": {"tested_on": "P. aeruginosa PA103 T3SS (ExoU secretion)", "assay_type": "cell-based, Pseudomonas aeruginosa"}, "[13]": {"tested_on": "Y. enterocolitica Ysa T3SS (YspF secretion)", "assay_type": "cell-based, Yersinia enterocolitica"}, "[14]": {"tested_on": "Salmonella enterica Typhimurium SPI-1 T3SS (SipA, SipC secretion)", "assay_type": "cell-based"}, "[15]": {"tested_on": "Salmonella flagellar T3SS (FliC, FliD secretion)", "assay_type": "cell-based, Salmonella enterica Typhimurium", "parameters": "key to Fla fliC (Table 2): NE: No effect observed"}, "[16]": {"tested_on": "C. trachomatis serovar L2 in HeLa cells", "assay": "Chlamydia infection of HeLa cells (primary and secondary infection)", "assay_type": "cell-based, Chlamydia trachomatis", "parameters": "key to lowest known inhibitory concentration (∼), cell-based infection assay, Chlamydia: NE: No effect observed", "method": "Primary infections. HeLa cell monolayers were infected with C. trachomatis serovar L2 at a multiplicity of infection (MOI) of 1.0 in the presence of one of the following compounds at 9 μM: DMSO, 4EpDN, or 4EpDN 2Sar. Cells were incubated for 24 h in the presence of the above-listed compounds at 37°C and then fixed with 4% paraformaldehyde (PFA). Cells were stained for IncA (Chlamydia inclusion membrane marker), DNA (with DAPI), and MOMP (Chlamydia major outer membrane protein) simultaneously. This method of staining allows visualization of the inclusion independent of MOMP synthesis or transport. The percentage of cells infected (i.e., stained positively for the listed Chlamydia markers) in the presence of the compounds was quantified using confocal microscopy. Quantifications of inclusion take into account both DAPI staining and indirect immunofluoresence with an antibody to MOMP. Ten randomly selected fields of view were measured per experiment. The data represent three biological replicates.\nSecondary infections. HeLa cell monolayers were infected with C. trachomatis serovar L2 at an MOI of 1.0 in the presence of one of the following compounds at 9 μM: DMSO, 4EpDN, or 4EpDN 2Sar. Cells were incubated for 48 h in the presence of the above-listed compounds at 37°C. Infected cells were then lysed, and the lysate was applied to fresh HeLa monolayers to enumerate infectious particles. These secondary infections were fixed in 4% PFA at 24 hpi and were stained against MOMP and DNA. The infectious units per ml (IFU/ml) were calculated by averaging the number of infected cells in each of 10 randomly selected fields of view at ×40 magnification on a confocal microscope and multiplying this by the appropriate dilution and area factors. The data represent four biological replicates."}, "P. aeruginosa (PAO1)": {"tested_on": "P. aeruginosa (PAO1)", "assay_type": "cell-based, Pseudomonas aeruginosa"}, "Y. pseudotuberculosis": {"tested_on": "Y. pseudotuberculosis", "assay_type": "cell-based, Yersinia pseudotuberculosis", "settings": "2xYT, 9-120 µM, 12 h"}, "Kinetic solubility": {"assay": "Kinetic solubility", "assay_type": "physicochemical", "method": "[…] Then, […] of 15 mM stock compound was added to make a solution of 120 μM final concentration with 0.8% DMSO. The solution was shaken at 37°C for ∼2 h. The solution was passed over a 0.7- μM glass fiber filter. Then, the solution was diluted 1:4 in acetonitrile to crash out any proteins. The solution was centrifuged at 500 × g for 10 min. Avoiding the pellet, 10 μl of supernatant was added to a fresh plate with 90 μl of acetonitrile. The final dilution is 40 times lower. Next, 10 μl of 40× dilution of solution was injected on the Orbi-trap. A 1 μM standard was used for the ratiometric comparison, and the assay was done in triplicate."}},
  "note": "Like-named read-outs stand apart in the source and are kept apart here. Marks after values point to notes of the source that are not given here. Square brackets hold non-standard residues; d marks the D form. Peptide text beside a SMILES is read from it. NPrGly = CCCNCC(=O)O; Sar = CNCC(=O)O",
  "data": [
    {"compound": "Tannic acid", "values": [
      {"measurement": "IC50", "setting": "Ssa-Esc T3SS, EPEC/EHEC [1]", "result": 0.65, "unit": "µM"}
    ]},
    {"compound": "COCCn1c2c([n+](Cc3cnccn3)c1C)C(=O)c1ccccc1C2=O", "note": "[Sepantronium bromide (YM155), Sepantronium bromide]", "values": [
      {"measurement": "lowest known inhibitory concentration (∼), SseK1/SseK2, NleB", "setting": "Ssa-Esc T3SS, EPEC/EHEC [2]; ref [110]", "result": "∼2 SseK1/SseK2^e, NleB^e μM"}
    ]},
    {"compound": "O=C(O[C@@H]1Cc2c(O)cc(O)cc2O[C@@H]1c1cc(O)c(O)c(O)c1)c1cc(O)c(O)c(O)c1", "note": "[Epigallocatechin gallate]", "values": [
      {"measurement": "lowest known inhibitory concentration (∼), Yops secretion", "setting": "[3]", "result": "∼16 μg/ml Yops^b"},
      {"measurement": "lowest known inhibitory concentration (∼), Sips secretion", "setting": "[4]", "result": "∼12μg/ml Sips^b"},
      {"measurement": "lowest known inhibitory concentration (∼), EspB secretion", "setting": "Ssa-Esc T3SS, EPEC/EHEC [5]; ref [87]", "result": "∼16 μg/ml EspB^b"},
      {"measurement": "IC50", "setting": "Ssa-Esc T3SS, EPEC/EHEC [1]", "result": 1.8, "unit": "µM"}
    ]},
    {"compound": "O=C(N/N=C/c1ccc(O)cc1O)c1ccc([N+](=O)[O-])cc1", "note": "[ME0055]", "values": [
      {"measurement": "lowest known inhibitory concentration (∼), LEE genes", "setting": "Ssa-Esc T3SS, EPEC/EHEC [2]; ref [76]", "result": "∼20 LEE genes^e μM"}
    ]},
    {"compound": "O=[N+]([O-])c1cc(CN2CCN(c3ccccc3)CC2)c(O)c2ncccc12", "note": "[INP1750]", "values": [
      {"measurement": "lowest known inhibitory concentration (∼), PA", "setting": "[6]; [68]", "result": "∼80^c μM"},
      {"measurement": "EC50", "setting": "[7]", "result": 12.4, "unit": "µM"},
      {"measurement": "MIC, Chlamydia", "setting": "[8]; [68]", "result": 25, "unit": "MIC^c μM"}
    ]},
    {"compound": "O=c1c(O)c(-c2cc(O)c(O)c(O)c2)oc2cc(O)cc(O)c12", "note": "[Myricetin]", "values": [
      {"measurement": "lowest known inhibitory concentration (∼), SipA/B translocation", "setting": "[9]; ref [107]", "result": "∼4 μg/ml SipA/B^f"}
    ]},
    {"compound": "C/C=C(\\C)C(O)C(C)/C=C(C)/C=C/C/C(C)=C/Cc1[nH]c(OC)cc(=O)c1C", "note": "(centres unmarked) [Mer-A 2026B]", "values": [
      {"measurement": "lowest known inhibitory concentration (∼), YopM translocation", "setting": "[10]", "result": "∼36; ∼9 YopM^f μM"}
    ]},
    {"compound": "Cc1ccc(C(C)C)c(O)c1", "note": "[Thymol]", "values": [
      {"measurement": "lowest known inhibitory concentration (∼), SipA translocation", "setting": "[9]; ref [90]", "result": "∼0.2 mM SipA^f"}
    ]},
    {"compound": "C/C=C\\C=C\\[C@@H]1O[C@](O)([C@H](CC)C(=O)NC/C=C/C=C(\\C)[C@@H](OC)[C@@H](C)[C@@H]2O[C@H](/C=C/C=C/C=C(\\C)C(=O)c3c(O)ccn(C)c3=O)[C@H](O)[C@@H]2O)[C@H](O)[C@H](O)C1(C)C", "note": "[Aurodox]", "values": [
      {"measurement": "IC50, EspABCD secretion", "setting": "Ssa-Esc T3SS, EPEC/EHEC [5]; ref [103]", "result": 0.5, "unit": "μg/ml EspABCD^b"}
    ]},
    {"compound": "C=CCc1ccc(Oc2cc(CC=C)cc(O)c2O)cc1", "note": "[Obovatol]", "values": [
      {"measurement": "IC50", "setting": "[11]; cell-based infection assay, ref [89]", "result": 19.8, "unit": "µM"}
    ]},
    {"compound": "O=C/C=C/c1ccccc1", "note": "[Cinnamaldehyde]", "values": [
      {"measurement": "lowest known inhibitory concentration (∼), SPI-1, SipAB", "setting": "[11]; footnotes c and e: cell-based infection assay, SipAB biochemical assay, ref [106]", "result": "∼100^c SipAB^e μM"}
    ]},
    {"compound": "O=[N+]([O-])c1cc(CN2CCN(c3ccc(F)cc3)CC2)c(O)c2ncccc12", "note": "[INP1855]", "values": [
      {"measurement": "lowest known inhibitory concentration (∼), PA", "setting": "[6]; [69]", "result": "∼60^c μM"},
      {"measurement": "EC50", "setting": "[7]", "result": 6.3, "unit": "µM"},
      {"measurement": "MIC, Chlamydia", "setting": "[8]; [69]", "result": 3.13, "unit": "MIC^c μM"}
    ]},
    {"compound": "CCCN1CC(=O)N(C)CC(=O)N[C@@H](CC(C)C)C(=O)N[C@@H]([C@@H](C)CC)C(=O)N[C@H](CC(C)C)C(=O)N[C@H](Cc2ccccc2)C1=O", "note": "[4EpDN 2Sar, 4-EpD1,2N 2Sar] (cyclo(I[dL][dF][NPrGly][Sar]L))", "values": [
      {"measurement": "T3SS inhibitory activity (ExoU secretion), in words", "setting": "[12]", "result": "significantly reduced activity"},
      {"measurement": "inhibition of ExoU secretion", "setting": "[12]; 9 µM", "result": "no effect"},
      {"measurement": "inhibition of ExoU secretion", "setting": "[12]; 60 µM", "result": "no effect"},
      {"measurement": "IC50", "setting": "[12]; read-out: IC50 (Table S1)", "result": "~140", "unit": "µM"},
      {"measurement": "IC50", "setting": "[12]; read-out: IC50, inhibition of secretion of T3SS effector ExoU", "result": 140, "unit": "µM"},
      {"measurement": "secretion of YspF, in words", "setting": "[13]", "result": "did not affect its secretion"},
      {"measurement": "concentrations at which inhibition of SipC and SipA secretion was seen", "setting": "[14]", "result": "greater than 30 μM"},
      {"measurement": "lowest known inhibitory concentration (∼), SipAC secretion", "setting": "[14]", "result": "∼30 SipAC^b μM"},
      {"measurement": "Fla fliC (Table 2)", "setting": "[15]", "result": "NE^d"},
      {"measurement": "effect on FliC secretion, in words", "setting": "[15]", "result": "no significant effect"},
      {"measurement": "effect on FliD secretion, in words", "setting": "[15]", "result": "no significant effect"},
      {"measurement": "inhibition of formation of infectious progeny", "setting": "[16]; 9 μM, EBs collected at 48 hpi, fresh monolayers 24 h", "result": "not"},
      {"measurement": "decrease of primary inclusion formation", "setting": "[16]; 9 μM, HeLa cells, 24 hpi", "result": "not"},
      {"measurement": "lowest known inhibitory concentration (∼), cell-based infection assay, Chlamydia", "setting": "[16]; Table 2, Chlamydiales", "result": "NE^d"},
      {"measurement": "bacterial viability in broth culture", "setting": "P. aeruginosa (PAO1)", "result": "did not affect bacterial viability"},
      {"measurement": "bacterial viability in broth culture", "setting": "Y. pseudotuberculosis", "result": "did not affect bacterial viability"},
      {"measurement": "solubility", "setting": "Kinetic solubility; DMEM (no antibiotics)", "result": 61, "unit": "µM"},
      {"measurement": "solubility", "setting": "Kinetic solubility; M9", "result": 61, "unit": "µM"}
    ]},
    {"compound": "C/C=C(\\C)[C@H](O)[C@H](C)/C=C(C)/C=C/C/C(C)=C/Cc1nc(OC)c(OC)c(O)c1C", "note": "[Piercidin A1]", "values": [
      {"measurement": "lowest known inhibitory concentration (∼), YopM translocation", "setting": "[10]", "result": "∼36; ∼9 YopM^f μM"}
    ]}
  ]
}
